Measured values taken from ChEMBL document CHEMBL4411285, “Design, synthesis, in silico pharmacokinetics prediction and biological evaluation of 1,4-dihydroindeno[1,2-c]pyrazole chalcone as EGFR /Akt pathway inhibitors” (Eur J Med Chem, 2019).
Active and inactive are the calls of the source. The rule behind the calls is not given here.

Columns and labels:
MDA-MB-231 = assay: Cytotoxicity against human MDA-MB-231 cells after 24 hrs by MTT assay; type: functional, cell-based; conditions: MDA-MB-231, 24 h
MCF7 = assay: Cytotoxicity against human MCF7 cells after 24 hrs by MTT assay; type: functional, cell-based; conditions: MCF7, 24 h
SK-BR-3 = assay: Cytotoxicity against human SKBR3 cells after 24 hrs by MTT assay; type: functional, cell-based; conditions: SK-BR-3, 24 h
HCT-116 = assay: Cytotoxicity against human HCT116 cells after 24 hrs by MTT assay; type: functional, cell-based; conditions: HCT-116, 24 h
A549 [1] = assay: Cytotoxicity against human A549 cells after 24 hrs by MTT assay; type: functional, cell-based; conditions: A549, 24 h
HEK-293T = assay: Cytotoxicity against human HEK293T cells after 24 hrs by MTT assay; type: cell-based
A549 [2] = assay: Cell cycle arrest in human A549 cells assessed as accumulation of cells at sub G1 phase at 10 uM after 24 hrs by propidium iodide staining-based flow cytometric analysis (reference value: 0.52%); type: functional
A549 [3] = assay: Cell cycle arrest in human A549 cells assessed as accumulation of cells at G0/G1 phase at 10 uM after 24 hrs by propidium iodide staining-based flow cytometric analysis (reference value: 71.1%); type: functional
A549 [4] = assay: Cell cycle arrest in human A549 cells assessed as accumulation of cells at S phase at 10 uM after 24 hrs by propidium iodide staining-based flow cytometric analysis (reference value: 6.22%); type: functional
A549 [5] = assay: Cell cycle arrest in human A549 cells assessed as accumulation of cells at G2/M phase at 10 uM after 24 hrs by propidium iodide staining-based flow cytometric analysis (reference value: 21.7%); type: functional
A549 [6] = assay: Induction of apoptosis in human A549 cells assessed as increase in BAX expression at 10 uM after 24 hrs by Western blot analysis; type: functional, cell-based
A549 [7] = assay: Induction of apoptosis in human A549 cells assessed as decrease in Bcl-2 expression at 10 uM after 24 hrs by Western blot analysis; type: functional, cell-based
A549 [8] = assay: Induction of apoptosis in human A549 cells assessed as increase in TP53 expression at 10 uM after 24 hrs by Western blot analysis; type: functional, cell-based
A549 [9] = assay: Downregulation of EGFR expression in human A549 cells at 10 uM after 24 hrs by Hoechst staining-based fluorescence assay; type: functional, cell-based
A549 [10] = assay: Downregulation of AKT expression in human A549 cells at 10 uM after 24 hrs by Hoechst staining-based immunocytochemistry; type: functional, cell-based
A549 [11] = assay: Inhibition of 3-D spheroids cell growth in human A549 cells at 10 uM after 25 days by crystal violet staining-based immunocytochemistry; type: functional
Tubulin (Homo sapiens) = Tubulin (Homo sapiens) (UniProt P68371+Q9H4B7+P0DPH7+P68366+Q13509+Q71U36+P04350+Q3ZCM7+P07437+P68363+Q9BQE3+Q6PEY2+Q13885+Q9BVA1+Q9BUF5); assay: Inhibition of tubulin network in human A549 cells at 10 uM after 24 hrs by Hoechst 33342 staining-based confocal microscopic analysis; type: cell-based

Compound | IC50 (MDA-MB-231) | IC50 (MCF7) | IC50 (SK-BR-3) | IC50 (HCT-116) | IC50 (A549 [1]) | IC50 (HEK-293T) | Activity (A549 [2]) | Activity (A549 [3]) | Activity (A549 [4]) | Activity (A549 [5]) | Activity (A549 [6]) | Activity (A549 [7]) | Activity (A549 [8]) | Activity (A549 [9]) | Activity (A549 [10]) | growth inhibition (GI) (A549 [11]) | inhibition (Tubulin (Homo sapiens))
COc1cc(C(=O)/C=C/c2[nH]nc3c2Cc2ccccc2-3)cc(OC)c1OC | 5.52 µM | 8.49 µM | 8.64 µM | 12.8 µM | 10.9 µM | 25 µM | – | – | – | – | – | – | – | – | – | – | –
COc1ccc(C(=O)/C=C/c2[nH]nc3c2Cc2cc(OC)c(OC)cc2-3)cc1 | 6.54 µM | 6.99 µM | 8.52 µM | 11.6 µM | 9.88 µM | 23 µM | – | – | – | – | – | – | – | – | – | – | –
COc1cc2c(cc1OC)-c1n[nH]c(/C=C/C(=O)c3cc(OC)c(OC)c(OC)c3)c1C2 | 6.03 µM | 6.83 µM | 4.97 µM | 5.9 µM | 4.33 µM | 29 µM | 5.16% | 51.1% | 9.36% | 33.7% | Active | Active | Active | Active | Active | Active | Active
COc1ccc2c(c1)-c1n[nH]c(/C=C/C(=O)c3ccc(N)cc3)c1C2 | 11.9 µM | 11.2 µM | 12.5 µM | 19.8 µM | 11.3 µM | 19 µM | – | – | – | – | – | – | – | – | – | – | –
C#Cc1cccc(Nc2ncnc3cc(OCCOC)c(OCCOC)cc23)c1 [ERLOTINIB] | 0.05 µM | 12.4 µM | 3.98 µM | 7.31 µM | – | 73 µM | 1.71% | 64.1% | 7.72% | 26% | Active | Active | Active | Active | Active | – | –
COc1ccc(C(=O)/C=C/c2[nH]nc3c2Cc2ccccc2-3)cc1OC | 6.82 µM | 10.1 µM | 11.4 µM | 20.5 µM | 13.4 µM | 38 µM | – | – | – | – | – | – | – | – | – | – | –
COc1ccc(C(=O)/C=C/c2[nH]nc3c2Cc2ccccc2-3)cc1 | 10.1 µM | 11.5 µM | 14.7 µM | 10.8 µM | 14.3 µM | 21 µM | – | – | – | – | – | – | – | – | – | – | –
COc1cc2c(cc1OC)-c1n[nH]c(/C=C/C(=O)c3ccc(N)cc3)c1C2 | 6.4 µM | 7.5 µM | 9.23 µM | 8.34 µM | 9.73 µM | 20 µM | – | – | – | – | – | – | – | – | – | – | –
O=C(/C=C/c1[nH]nc2c1Cc1ccccc1-2)c1ccc2c(c1)OCO2 | 14.5 µM | 12.4 µM | 17.3 µM | 13.8 µM | 16 µM | 17 µM | – | – | – | – | – | – | – | – | – | – | –
COc1ccc2c(c1)-c1n[nH]c(/C=C/C(=O)c3ccc4c(c3)OCO4)c1C2 | 9.31 µM | 9.99 µM | 12.5 µM | 13.7 µM | 12.4 µM | 54 µM | – | – | – | – | – | – | – | – | – | – | –
COc1ccc2c(c1)-c1n[nH]c(/C=C/C(=O)c3ccc(OC)c(OC)c3)c1C2 | 4.48 µM | 7.99 µM | 9.22 µM | 12.2 µM | 10.4 µM | 33 µM | – | – | – | – | – | – | – | – | – | – | –
COc1ccc(C(=O)/C=C/c2[nH]nc3c2Cc2ccc(OC)cc2-3)cc1 | 6.21 µM | 9.18 µM | 10.2 µM | 13.2 µM | 13.3 µM | 45 µM | – | – | – | – | – | – | – | – | – | – | –
Nc1ccc(C(=O)/C=C/c2[nH]nc3c2Cc2ccccc2-3)cc1 | 5.66 µM | 8.35 µM | 7.47 µM | 14.9 µM | 11.5 µM | 35 µM | – | – | – | – | – | – | – | – | – | – | –
COc1cc2c(cc1OC)-c1n[nH]c(/C=C/C(=O)c3ccc4c(c3)OCO4)c1C2 | 5.28 µM | 6.9 µM | 8.12 µM | 11.6 µM | 11.9 µM | 18 µM | – | – | – | – | – | – | – | – | – | – | –
COc1ccc(C(=O)/C=C/c2[nH]nc3c2Cc2cc(OC)c(OC)cc2-3)cc1OC | 3.82 µM | 6.94 µM | 5.11 µM | 6.66 µM | 5.21 µM | 46 µM | 5.27% | 45.9% | 7.62% | 40.6% | Active | Active | Active | Active | Active | Active | Active
COc1ccc2c(c1)-c1n[nH]c(/C=C/C(=O)c3cc(OC)c(OC)c(OC)c3)c1C2 | 5.89 µM | 6.55 µM | 4.79 µM | 6.85 µM | 3.82 µM | 32 µM | 2.36% | 59.5% | 7.99% | 29.6% | Active | Active | Active | Active | Active | Active | Active
